According to patent publication US20250171438A1 (Agios Pharmaceuticals, Inc., priority 2022, published 2025):

Each compound was assayed against T1, human PAH with the R408W mutation (Homo sapiens, UniProt P00439, R408W) (assay: Cell Based Phenylalanine Flux Assay). Conditions: A375 cells expressing human R408W PAH; 24 hrs compound incubation; 13C-Tyrosine by LC-MS; average where tested multiple times; read-out: AC50.
T1 construct: expressed in transfected cells
T1 sequence (P00439 1-452 R408W): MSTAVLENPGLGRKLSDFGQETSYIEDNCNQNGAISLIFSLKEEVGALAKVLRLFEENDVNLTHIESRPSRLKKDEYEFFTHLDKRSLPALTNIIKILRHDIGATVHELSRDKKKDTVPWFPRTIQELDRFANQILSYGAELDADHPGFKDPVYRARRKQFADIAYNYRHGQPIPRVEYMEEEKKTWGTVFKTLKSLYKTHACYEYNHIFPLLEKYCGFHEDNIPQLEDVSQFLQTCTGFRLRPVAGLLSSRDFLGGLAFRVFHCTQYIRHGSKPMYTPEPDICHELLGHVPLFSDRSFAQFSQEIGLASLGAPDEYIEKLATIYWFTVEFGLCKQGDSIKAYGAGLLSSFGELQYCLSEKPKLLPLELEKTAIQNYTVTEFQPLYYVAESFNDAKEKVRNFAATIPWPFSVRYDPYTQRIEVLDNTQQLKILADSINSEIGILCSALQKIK

| Compound | AC50 |
| --- | --- |
| N#Cc1nn2cc(Br)ccc2c1C(=O)N1CCc2[nH]cnc2[C@@H]1c1nc2ccccc2s1 [Example 1780, (R)-3-(4-(benzo[d]thiazol-2-yl)-4,5,6,7-tetrahydro-1H-imidazo[4,5-c]pyridine-5-carbonyl)-6-bromopyrazolo[1,5-a]pyridine-2-carbonitrile] | 1000 to 5000 nM |
| Cc1nnc(C(=O)N2CC3(CC3)c3[nH]cnc3[C@H]2c2nc3ccccc3s2)o1 [Example 1686, (S)-(4′-(benzo[d]thiazol-2-yl)spiro[cyclopropane-1,7′-imidazo[4,5-c]pyridin]-5′(1′H,4′H,6′H)-yl)(5-methyl-1,3,4-oxadiazol-2-yl)methanone] | 500 to 1000 nM |
| O=C(c1cnn2ccc(Cl)cc12)N1CCc2[nH]cnc2[C@H]1c1nc2ccc(Br)cc2[nH]1 [Example 965, (S)-(4-(6-bromo-1H-benzo[d]imidazol-2-yl)-6,7-dihydro-1H-imidazo[4,5-c]pyridin-5(4H)-yl)(5-chloropyrazolo[1,5-a]pyridin-3-yl)methanone] | 1000 to 5000 nM |
| O=C(c1cnn2c(Br)cccc12)N1CCc2[nH]cnc2[C@H]1c1nc2ccccc2s1 [Example 1069] | 500 to 1000 nM |
| O=C(CCC1CC1)N1CCc2nc[nH]c2[C@@H]1c1nc2c(F)cccc2s1 [Example 1114, (R)-3-cyclopropyl-1-(4-(4-fluorobenzo[d]thiazol-2-yl)-6,7-dihydro-3H-imidazo[4,5-c]pyridin-5(4H)-yl)propan-1-one] | > 5000 nM |
| CC(C)(O)c1nc(Br)c(C(=O)N2CCc3[nH]cnc3[C@@H]2c2nc3c(F)cccc3s2)o1 [Example 1898, (R)-(4-bromo-2-(2-hydroxypropan-2-yl)oxazol-5-yl)(4-(4-fluorobenzo[d]thiazol-2-yl)-6,7-dihydro-1H-imidazo[4,5-c]pyridin-5(4H)-yl)methanone] | 1000 to 5000 nM |
| Cc1nc(C)c(C(=O)N2CCc3[nH]cnc3[C@H]2c2nc3ccccc3s2)s1 [Example 1177] | 500 to 1000 nM |
| CC(C)n1ncnc1C(=O)N1CCc2[nH]cnc2[C@H]1c1nc2c(F)cccc2s1 [Example 2039, (S)-(4-(4-fluorobenzo[d]thiazol-2-yl)-6,7-dihydro-1H-imidazo[4,5-c]pyridin-5(4H)-yl)(1-isopropyl-1H-1,2,4-triazol-5-yl)methanone] | < 500 nM |
| Cn1cc(-c2ncc(C(=O)N3CCc4[nH]cnc4[C@H]3c3nc4ccccc4s3)o2)cn1 [Example 1344] | 500 to 1000 nM |
| O=C(CC1CC(F)(F)C1)N1CCc2[nH]cnc2[C@H]1c1nc2ccccc2s1 [Example 1277] | < 500 nM |
| Cc1nn(C)c(C)c1-c1ncc(C(=O)N2CCc3[nH]cnc3[C@@H]2c2nc3ccccc3s2)s1 [Example 1406, (R)-(4-(benzo[d]thiazol-2-yl)-6,7-dihydro-1H-imidazo[4,5-c]pyridin-5(4H)-yl)(2-(1,3,5-trimethyl-1H-pyrazol-4-yl)thiazol-5-yl)methanone] | 500 to 1000 nM |
| O=C(c1cnn2c(Br)cccc12)N1CCc2[nH]cnc2[C@@H]1c1nc2c(F)cccc2s1 [Example 1240, (R)-(7-bromopyrazolo[1,5-a]pyridin-3-yl)(4-(4-fluorobenzo[d]thiazol-2-yl)-6,7-dihydro-1H-imidazo[4,5-c]pyridin-5(4H)-yl)methanone] | 1000 to 5000 nM |
| Cc1nc(CCCN2CC(F)C2)oc1C(=O)N1CCc2[nH]cnc2[C@H]1c1nc2ccccc2s1 [Example 1671] | 500 to 1000 nM |
| COCc1nc(C(F)F)c(C(=O)N2CCc3[nH]cnc3[C@@H]2c2nc3ccccc3s2)o1 [Example 1808, (R)-(4-(benzo[d]thiazol-2-yl)-6,7-dihydro-1H-imidazo[4,5-c]pyridin-5(4H)-yl)(4-(difluoromethyl)-2-(methoxymethyl)oxazol-5-yl)methanone] | 1000 to 5000 nM |
| CN(C)Cc1ccc2c(C(=O)N3CCc4[nH]cnc4[C@@H]3c3nc4ccccc4s3)cnn2c1 [Example 1312, (R)-(4-(benzo[d]thiazol-2-yl)-6,7-dihydro-1H-imidazo[4,5-c]pyridin-5(4H)-yl)(6-((dimethylamino)methyl)pyrazolo[1,5-a]pyridin-3-yl)methanone] | > 5000 nM |
| O=C(c1oc(COC(F)(F)F)nc1C(F)F)N1CCc2[nH]cnc2[C@@H]1c1nc2ccccc2s1 [Example 1832, (R)-(4-(benzo[d]thiazol-2-yl)-6,7-dihydro-1H-imidazo[4,5-c]pyridin-5(4H)-yl)(4-(difluoromethyl)-2-((trifluoromethoxy)methyl)oxazol-5-yl)methanone] | 1000 to 5000 nM |
| CC(O)(c1nc(C(F)(F)F)c(C(=O)N2CCc3[nH]cnc3[C@H]2c2nc3ccccc3s2)o1)C1CC1 (single isomer, unassigned) [Example 1561] | < 500 nM |
| Cc1cccc2sc([C@@H]3c4nc[nH]c4CCN3C(=O)c3cncs3)nc12 [Example 1305, (S)-(4-(4-methylbenzo[d]thiazol-2-yl)-6,7-dihydro-1H-imidazo[4,5-c]pyridin-5(4H)-yl)(thiazol-5-yl)methanone] | 500 to 1000 nM |
| O=C(c1cc2cccnn2c1)N1CCc2[nH]cnc2[C@H]1c1nc2ccccc2s1 [Example 1127] | 500 to 1000 nM |
| Nc1cc(C(=O)N2CCc3[nH]cnc3[C@@H]2c2nc3ccccc3s2)n(C(F)F)n1 [Example 2052, (R)-(3-amino-1-(difluoromethyl)-1H-pyrazol-5-yl)(4-(benzo[d]thiazol-2-yl)-6,7-dihydro-1H-imidazo[4,5-c]pyridin-5(4H)-yl)methanone] | 1000 to 5000 nM |
| Cc1ccc2c(C(=O)N3CCc4[nH]cnc4[C@H]3c3nc4c(C)cccc4s3)cnn2c1 [Example 1295, (S)-(4-(4-methylbenzo[d]thiazol-2-yl)-6,7-dihydro-1H-imidazo[4,5-c]pyridin-5(4H)-yl)(6-methylpyrazolo[1,5-a]pyridin-3-yl)methanone] | 500 to 1000 nM |
| Cn1ncc(-c2ncc(C(=O)N3CCc4[nH]cnc4[C@H]3c3nc4ccccc4s3)s2)c1C(F)(F)F [Example 1407] | < 500 nM |
| O=C(c1nnc(-c2ccc(F)cc2F)o1)N1CCc2[nH]cnc2[C@@H]1c1nc2c(F)cccc2s1 [Example 1875, (R)-(5-(2,4-difluorophenyl)-1,3,4-oxadiazol-2-yl)(4-(4-fluorobenzo[d]thiazol-2-yl)-6,7-dihydro-1H-imidazo[4,5-c]pyridin-5(4H)-yl)methanone] | 1000 to 5000 nM |
| O=C(c1nnc(-c2cnn(C(F)F)c2)o1)N1CCc2[nH]cnc2[C@@H]1c1nc2c(F)cccc2s1 [Example 1823, (R)-(5-(1-(difluoromethyl)-1H-pyrazol-4-yl)-1,3,4-oxadiazol-2-yl)(4-(4-fluorobenzo[d]thiazol-2-yl)-6,7-dihydro-1H-imidazo[4,5-c]pyridin-5(4H)-yl)methanone] | 1000 to 5000 nM |
| Cc1nc(C2(O)CCC2)oc1C(=O)N1CCc2[nH]cnc2[C@H]1c1nc2c(F)cccc2s1 [Example 1913, (S)-(4-(4-fluorobenzo[d]thiazol-2-yl)-6,7-dihydro-1H-imidazo[4,5-c]pyridin-5(4H)-yl)(2-(1-hydroxycyclobutyl)-4-methyloxazol-5-yl)methanone] | 500 to 1000 nM |
| O=C(c1nnc(-c2cc(C(F)(F)F)ccn2)o1)N1CCc2[nH]cnc2[C@@H]1c1nc2ccccc2s1 [Example 1890, [(4R)-4-(1,3-benzothiazol-2-yl)-1,4,6,7-tetrahydroimidazo[4,5-c]pyridin-5-yl]-[5-[4-(trifluoromethyl)-2-pyridyl]-1,3,4-oxadiazol-2-yl]methanone] | 1000 to 5000 nM |

Same assay, conditions: A375 cells expressing human R408W PAH; 24 hrs with compound; 13C-Tyrosine by LC-MS; average where tested multiple times; read-out: AC50

| Compound | AC50 |
| --- | --- |
| O=C(Cc1noc2ccccc12)N1CCc2[nH]cnc2C1c1nc2ccccc2[nH]1 (stereo not shown) | > 5000 nM |
| Cn1ncc(C(=O)N2CCc3[nH]cnc3C2c2nc3c(F)cccc3s2)c1C(F)(F)F (stereo not shown) | 1000 to 5000 nM |
| COc1cccc(C=CC(=O)N2CCc3[nH]cnc3C2c2nc3ccccc3[nH]2)c1 (stereo not shown) | > 5000 nM |
| O=C(c1cc2ccccn2c1)N1CCc2[nH]cnc2[C@H]1c1nc2ccccc2s1 (single isomer, unassigned) | 1000 to 5000 nM |
| O=C(C1CC1)N1CCc2[nH]cnc2C1c1nc2ccc(F)cc2[nH]1 (stereo not shown) | 1000 to 5000 nM |
| O=C(c1ocnc1CO)N1CC2(CC2)c2[nH]cnc2C1c1nc2ccccc2s1 (stereo not shown) | > 5000 nM |
| COCc1nnc(C(=O)N2CCc3[nH]cnc3C2c2nc3ccccc3s2)o1 (stereo not shown) | 1000 to 5000 nM |
| Cn1cc(-c2cccc(C(=O)N3CCc4[nH]cnc4[C@H]3c3nc4ccccc4s3)c2)cn1 (single isomer, unassigned) | 1000 to 5000 nM |
| O=C(c1cnn2c(Br)cccc12)N1CCc2[nH]cnc2C1c1nc2ccc(Cl)cc2[nH]1 (stereo not shown) | > 5000 nM |
| O=C(C1CN(c2ccccn2)C1)N1CCc2[nH]cnc2C1c1nc2c(F)cccc2s1 (stereo not shown) | 1000 to 5000 nM |
| Cn1nc(N)cc1C(=O)N1CCc2[nH]cnc2C1c1nc2ccccc2s1 (stereo not shown) | 1000 to 5000 nM |
| N#Cc1ccn2ncc(C(=O)N3CCc4[nH]cnc4[C@H]3c3nc4ccccc4[nH]3)c2c1 [(S)-3-(4-(1H-benzo[d]imidazol-2-yl)-4,5,6,7-tetrahydro-1H-imidazo[4,5-c]pyridine-5-carbonyl)pyrazolo[1,5-a]pyridine-5-carbonitrile] | > 5000 nM |
| Cc1nc(CCN2CC(F)C2)oc1C(=O)N1CCc2[nH]cnc2C1c1nc2ccccc2s1 (stereo not shown) | > 5000 nM |
| Cc1nc(-c2ccccn2)c(C(=O)N2CCc3[nH]cnc3C2c2nc3c(F)cccc3s2)o1 (stereo not shown) | > 5000 nM |
| O=C(Cc1nc(C(F)(F)F)cs1)N1CCc2[nH]cnc2C1c1nc2c(F)cccc2s1 (stereo not shown) | > 5000 nM |
| Cn1ncc(C(=O)N2CCc3[nH]cnc3C2c2nc3c(F)cccc3s2)c1Cl (stereo not shown) | 1000 to 5000 nM |
| O=C(c1cnn2cc(F)ccc12)N1CCc2[nH]cnc2C1c1nc2ccc(F)cc2s1 (stereo not shown) | 1000 to 5000 nM |
